For assay [1], the target named is cGMP-specific 3',5'-cyclic phosphodiesterase (Homo sapiens, UniProt O76074). Kind of assay: Inhibitory concentration against Phosphodiesterase type 5.
Another assay has as its target Phosphodiesterase 3 (Homo sapiens, UniProt Q14432+Q13370). In words: Inhibitory concentration against Phosphodiesterase type 3. The class given is protein assay.
The target in another assay is Phosphodiesterase 1 (Homo sapiens, UniProt P54750+Q01064+Q14123). In words: Inhibitory concentration against Phosphodiesterase type 1. It is filed as protein assay.
For a further assay, the species on record is Rattus norvegicus. Kind of assay: Effective concentration required for vasodilatory effect in isolated vessel of rat. The class given is functional.

Take `O=C(Cc1csc(NC(=O)c2cccc(COc3ccccc3)n2)n1)NO`: the IC50 in assay [1] was 190 nM; on Phosphodiesterase 3 it was greater than 10000 nM; against Phosphodiesterase 1, 920 nM. Moreover, in the assay filed under Rattus norvegicus, the half-maximal effective concentration (EC50) was found to be 3900 nM.
On the same counts, the results for `CCc1cc(C(C)=O)c(O)cc1OCc1cccc(C(=O)Nc2nc(CC(=O)NO)cs2)n1` are 26 nM, 1300 nM, 87 nM and 900 nM.
Take `O=C(Cc1csc(NC(=O)CCC(=O)c2ccccc2)n1)NO`: the results for the half-maximal inhibitory concentration (IC50) (in assay [1]; against Phosphodiesterase 1) were 4520 nM and greater than 10000 nM, respectively.
Regarding `O=C(Cc1csc(NC(=O)c2cccc(C(=O)c3ccccc3)c2)n1)NO`, the IC50 in assay [1] turned out to be 3410 nM; at Phosphodiesterase 1 it was 1720 nM.
For `O=C(Nc1nc(C(Cc2ccccc2)C(=O)NO)cs1)c1cccc(COc2ccccc2)n1` (stereo unspecified), the results for the IC50 (in assay [1]; against Phosphodiesterase 1) were 830 nM and 1360 nM, respectively.
As to `O=C(Cc1cccc(NC(=O)c2cccc(COc3ccccc3)n2)c1)NO`, the IC50 turned out to be 13 nM in assay [1] and 2410 nM against Phosphodiesterase 1.
On to `O=C(Cc1csc(NC(=O)CCCCCc2ccccc2)n1)NO`, for which the half-maximal inhibitory concentration (IC50) came to 1900 nM in assay [1] and 4500 nM against Phosphodiesterase 1.
`CC(C)CC(C(=O)NO)c1csc(NC(=O)c2cccc(COc3ccccc3)n2)n1` (stereo unspecified): the half-inhibitory concentration (IC50) came to 620 nM in assay [1] and 3940 nM on Phosphodiesterase 1.
With `COc1ccc2c(c1)OC(=O)CC2CC(=O)Nc1nc(CC(=O)NO)cs1` (stereo unspecified), the IC50 in assay [1] is 5990 nM; against Phosphodiesterase 1, greater than 10000 nM.
`O=C(Cc1csc(NC(=O)c2ccccc2)n1)NO`: the 50% inhibitory concentration (IC50) in assay [1] is 3250 nM; at Phosphodiesterase 1, greater than 10000 nM.
Turning to `O=C(Cc1csc(NC(=O)c2ccccn2)n1)NO`, the IC50 is 3200 nM in assay [1] and 7100 nM at Phosphodiesterase 1.
